Where a SMILES comes first, the peptide text is derived from it. [ ]: non-standard residue; d: D form. The star is where a group is joined. Propanoyl(3-(4-F-phenyl)) = O=C(CCc1ccc(F)cc1)*; NH(2-pyrrolidin-1-ylethyl) = C1CCN(CCN*)C1; dBip = N[C@H](Cc1ccc(-c2ccccc2)cc1)C(=O)O; 1Nal = N[C@@H](Cc1cccc2ccccc12)C(=O)O; d1Nal = N[C@H](Cc1cccc2ccccc12)C(=O)O; NMeY = CN[C@@H](Cc1ccc(O)cc1)C(=O)O; Tic = O=C(O)[C@@H]1Cc2ccccc2CN1; NMeL = CN[C@@H](CC(C)C)C(=O)O; Nicotinoyl = O=C(c1cccnc1)*; Sar = CNCC(=O)O
These compounds were tested against T1, LH release from rat pituitary cells (Rattus norvegicus, UniProt P30969) (assay: in vitro inhibition of LH release from rat pituitary cells (pA2, vs agonist leuprolide)). Settings: negative logarithm of antagonist concentration required to shift the response curve produced by agonist leuprolide to two-fold higher concentration.
T1 sequence (P30969 1-327): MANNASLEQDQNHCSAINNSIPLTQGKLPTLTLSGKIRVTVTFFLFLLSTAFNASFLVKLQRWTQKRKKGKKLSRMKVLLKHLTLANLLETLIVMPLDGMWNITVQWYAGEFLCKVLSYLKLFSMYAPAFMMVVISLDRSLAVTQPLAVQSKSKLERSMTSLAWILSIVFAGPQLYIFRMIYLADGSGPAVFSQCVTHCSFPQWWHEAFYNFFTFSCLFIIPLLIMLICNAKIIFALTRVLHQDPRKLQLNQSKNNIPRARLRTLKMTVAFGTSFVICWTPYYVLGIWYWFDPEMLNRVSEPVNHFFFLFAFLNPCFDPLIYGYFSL
Assay type: cell-based
Description: Representative compounds of the present invention were evaluated in vitro for inhibition of LH release from rat pituitary cells (pA2). Methods for the assay procedures are described by F. Haviv, et al. J. Med. Chem., 32:2340-2344 (1989). Values of pA2 are the negative logarithms of the concentration of the particular antagonist test compound required to shift the response curve produced by the agonist leuprolide to two-fold higher concentration. Typically values of 6.0 or greater are indicative of good LHRH antagonist potency, with values of 7.0 or greater being preferred. Leuprolide LHRH agonist, disclosed and claimed in U.S. Pat. No. 4,005,063, has the structure 5-oxo-Pro1^1 -His^2 […] -Ser^4 -Tyr^5 -D-Leu^6 -Leu^7 -Arg^8 -Pro^9 -NHEt.

Going from `CC(C)C[C@H](NC(=O)[C@@H](CCCCNC(=O)c1cccnc1)NC(=O)[C@H](Cc1ccc(O)cc1)N(C)C(=O)[C@H](CO)NC(=O)[C@@H](Cc1cccc2ccccc12)NC(=O)CCc1ccc(F)cc1)C(=O)NCCN1CCCC1` [Example 1, 4-F-Phenylpropionyl-D1Nal-Ser-NMeTyr-DLys(Nic)-Leu-NH--(CH2)2 -(1-pyrrolidine)] ({Propanoyl(3-(4-F-phenyl))}-[d1Nal]S[NMeY][dK](Nicotinoyl)L-{NH(2-pyrrolidin-1-ylethyl)}) to `CC(C)C[C@H](NC(=O)[C@@H](CCCCNC(=O)c1cccnc1)NC(=O)[C@H](Cc1ccc(O)cc1)N(C)C(=O)[C@H](CO)NC(=O)[C@H](Cc1cccc2ccccc12)NC(=O)CCc1ccc(F)cc1)C(=O)NCCN1CCCC1` [Example 14, 4-F-Phenylpropionyl-1Nal-Ser-NMeTyr-DLys(Nic)-Leu-NH--(CH2)2 -(1-pyrrolidine)] ({Propanoyl(3-(4-F-phenyl))}-[1Nal]S[NMeY][dK](Nicotinoyl)L-{NH(2-pyrrolidin-1-ylethyl)}), the “LHRH Antagonist Activity (pA2)” value falls from 9.91 to 8.68.

`CC(C)C[C@H](NC(=O)CNC(=O)[C@H](Cc1ccc(O)cc1)N(C)C(=O)[C@H](CO)NC(=O)[C@@H](Cc1cccc2ccccc12)NC(=O)CCc1ccc(F)cc1)C(=O)NCCN1CCCC1` [Example 2, 4-F-Phenylpropionyl-D1Nal-Ser-NMeTyr-Gly-Leu-NH--(CH2)2 -(1pyrrolidine)] ({Propanoyl(3-(4-F-phenyl))}-[d1Nal]S[NMeY]GL-{NH(2-pyrrolidin-1-ylethyl)}) and `CC(C)C[C@@H](C(=O)NCCN1CCCC1)N(C)C(=O)CNC(=O)[C@H](Cc1ccc(O)cc1)N(C)C(=O)[C@H](CO)NC(=O)[C@@H](Cc1cccc2ccccc12)NC(=O)CCc1ccc(F)cc1` [Example 8, 4-F-Phenylpropionyl-D1Nal-Ser-NMeTyr-Gly-NMeLeu-NH--(CH2)2 -(1Pyrrolidine)] ({Propanoyl(3-(4-F-phenyl))}-[d1Nal]S[NMeY]G[NMeL]-{NH(2-pyrrolidin-1-ylethyl)}) are within 0.2 log units of each other in “LHRH Antagonist Activity (pA2)” value: 9.14 for the first, 9.00 for the second.

First: CC(C)C[C@H](NC(=O)[C@@H](CCCCNC(=O)c1cccnc1)NC(=O)CN(C)C(=O)[C@H](CO)NC(=O)[C@@H](Cc1cccc2ccccc12)NC(=O)CCc1ccc(F)cc1)C(=O)NCCN1CCCC1 [Example 3, 4-F-Phenylpropionyl-D1Nal-Ser-Sar-DLys(Nic)-Leu-NH--(CH2)2 (1-pyrrolidine)] ({Propanoyl(3-(4-F-phenyl))}-[d1Nal]S[Sar][dK](Nicotinoyl)L-{NH(2-pyrrolidin-1-ylethyl)})
Second: CC(C)C[C@H](NC(=O)[C@@H](CCCCNC(=O)c1cccnc1)NC(=O)[C@H](Cc1ccc(O)cc1)NC(=O)[C@H](CO)NC(=O)[C@@H](Cc1cccc2ccccc12)NC(=O)CCc1ccc(F)cc1)C(=O)NCCN1CCCC1 [Example 7, 4-F-Phenylpropiopyl-D1Nal-Ser-Tyr-DLys(Nic)-Leu-NH--(CH2)2 -(1-pyrrolidine)] ({Propanoyl(3-(4-F-phenyl))}-[d1Nal]SY[dK](Nicotinoyl)L-{NH(2-pyrrolidin-1-ylethyl)})
The “LHRH Antagonist Activity (pA2)” value of the first is lower: 7.66 for the first, 9.73 for the second.

`CC(C)C[C@H](NC(=O)[C@@H](CCCCNC(=O)c1cccnc1)NC(=O)[C@H](Cc1ccc(O)cc1)N(C)C(=O)CNC(=O)[C@@H](Cc1cccc2ccccc12)NC(=O)CCc1ccc(F)cc1)C(=O)NCCN1CCCC1` [Example 6, 4-F-Phenylpropionyl-D1Nal-Gly-NMeTyr-DLys(Nic)-Leu-NH--(CH2)2 -(1-pyrrolidine)] ({Propanoyl(3-(4-F-phenyl))}-[d1Nal]G[NMeY][dK](Nicotinoyl)L-{NH(2-pyrrolidin-1-ylethyl)}) and `CC(C)C[C@H](NC(=O)[C@@H](CCCCNC(=O)c1cccnc1)NC(=O)[C@H](Cc1ccc(O)cc1)N(C)C(=O)[C@@H]1CCCN1C(=O)[C@@H](Cc1cccc2ccccc12)NC(=O)CCc1ccc(F)cc1)C(=O)NCCN1CCCC1` [Example 16, 4-F-Phenylpropionyl-D1Nal-Pro-NMeTyr-DLys(Nic)-Leu-NH--(CH2)2 -(1-Pyrrolidine)] ({Propanoyl(3-(4-F-phenyl))}-[d1Nal]P[NMeY][dK](Nicotinoyl)L-{NH(2-pyrrolidin-1-ylethyl)}) are within 0.2 log units of each other in “LHRH Antagonist Activity (pA2)” value: 8.90 for the first, 8.71 for the second.

Going from `CC(C)C[C@@H](C(=O)NCCN1CCCC1)N(C)C(=O)CNC(=O)[C@H](Cc1ccc(O)cc1)N(C)C(=O)CNC(=O)[C@@H](Cc1cccc2ccccc12)NC(=O)CCc1ccc(F)cc1` [Example 9, 4-F-Phenylpropionyl-D1Nal-Gly-NMeTyr-Gly-NMeLeu-NH--(CH2)2 -(1-pyrrolidine)] ({Propanoyl(3-(4-F-phenyl))}-[d1Nal]G[NMeY]G[NMeL]-{NH(2-pyrrolidin-1-ylethyl)}) to `CC(C)C[C@H](NC(=O)[C@@H](Cc1ccccc1)NC(=O)[C@H](Cc1ccc(O)cc1)N(C)C(=O)[C@H](CO)NC(=O)[C@@H](Cc1c[nH]c2ccccc12)NC(=O)CCc1ccc(F)cc1)C(=O)NCCN1CCCC1` [Example 15, 4-F-Phenylpropionyl-DTrp-Ser-NMeTyr-DPhe-Leu-NH--(CH2)2 -(1-pyrrolidine)] ({Propanoyl(3-(4-F-phenyl))}-[dW]S[NMeY][dF]L-{NH(2-pyrrolidin-1-ylethyl)}), the “LHRH Antagonist Activity (pA2)” value rises from 7.72 to 8.59.

Compared with `CC(C)C[C@H](NC(=O)[C@@H](CCCCNC(=O)c1cccnc1)NC(=O)[C@H](Cc1ccc(O)cc1)N(C)C(=O)[C@H](CO)NC(=O)[C@@H](Cc1c[nH]c2ccccc12)NC(=O)CCc1ccc(F)cc1)C(=O)NCCN1CCCC1` [Example 10, 4-F-Phenylpropionyl-DTrp-Ser-NMeTyr-DLys(Nic)-Leu-NH--(CH2)2 -(1-pyrrolidine)] ({Propanoyl(3-(4-F-phenyl))}-[dW]S[NMeY][dK](Nicotinoyl)L-{NH(2-pyrrolidin-1-ylethyl)}), `CC(C)C[C@H](NC(=O)[C@@H](CCCCNC(=O)c1cccnc1)NC(=O)[C@H](Cc1ccc(O)cc1)N(C)C(=O)[C@H](CO)NC(=O)[C@@H](Cc1ccc(-c2ccccc2)cc1)NC(=O)CCc1ccc(F)cc1)C(=O)NCCN1CCCC1` [Example 11, 4-F-Phenylpropionyl-DBiphe-Ser-NMeTyr-DLys(Nic)-Leu-NH--(CH2)2-(1-pyrrolidine)] ({Propanoyl(3-(4-F-phenyl))}-[dBip]S[NMeY][dK](Nicotinoyl)L-{NH(2-pyrrolidin-1-ylethyl)}) is lower in “LHRH Antagonist Activity (pA2)” value: 8.69 for the first, 7.62 for the second.

First: CC(C)C[C@H](NC(=O)[C@@H](CCCCNC(=O)c1cccnc1)NC(=O)[C@@H]1Cc2ccccc2CN1C(=O)[C@H](CO)NC(=O)[C@@H](Cc1cccc2ccccc12)NC(=O)CCc1ccc(F)cc1)C(=O)NCCN1CCCC1 [Example 17, 4-F-Phenylpropionyl-D1Nal-Ser-Tic-DLys(Nic)-Leu-NH--(CH2)2 -( 1-pyrrolidine)] ({Propanoyl(3-(4-F-phenyl))}-[d1Nal]S[Tic][dK](Nicotinoyl)L-{NH(2-pyrrolidin-1-ylethyl)})
Second: CC(C)C[C@H](NC(=O)[C@@H](CCCCNC(=O)c1cccnc1)NC(=O)[C@H](Cc1ccc(O)cc1)N1CC[C@H](NC(=O)[C@@H](Cc2cccc3ccccc23)NC(=O)CCc2ccc(F)cc2)C1=O)C(=O)NCCN1CCCC1 [Example 19, 4-F-Phenylpropionyl-D1Nal-6,7[2-(S-3-amino-2-oxo-pyrrolidin-1-yl)-S-2-(para-hydroxyl)phenylacetyl]-DLys(Nic)-Leu-NH--(CH2)2-(1-pyrrolidine)]
The “LHRH Antagonist Activity (pA2)” value of the first is higher: 9.32 for the first, 7.89 for the second.
